According to patent US9314521B2, “Adjuvant compound” (ISA Pharmaceuticals B.V., priority 2011, dated 2016):
Non-standard residues stand in square brackets, D forms with d. No end group written: not given here. *: point of attachment. Cys((RS)-2,3-di(palmitoyloxy)-propyl) = Cys S-substituted with (RS)-2,3-di(palmitoyloxy)-propyl (dipalmitoyl-glyceryl); X1 = (RS)‑2,3‑di(palmitoyloxy)‑propyl, CCCCCCCCCCCCCCCC(=O)OCC(C*)OC(=O)CCCCCCCCCCCCCCC; 1‑tetradecyl‑urea = N-terminal tetradecyl-urea lipid group, CCCCCCCCCCCCCCNC(=O)*; Abu = CC[C@H](N)C(=O)O

Key:
DC = assay: UPam variants: up-regulation of cell surface markers CD40, CD86 and MHC Class II (DC maturation); assay type: cell-based; details: 3 μM and 30 nM
Method: The UPam variants wherein Xn was varied were compared by measuring IL-12 production and the up-regulation of the cell surface markers CD40, CD86 and MHC Class II at 3 μM and 30 nM. Herein, Xn takes the place of serine in the SK4 (SEQ ID NO: 18) peptide part according to formula (2), containing different groups for R^5. Compounds X1 up to X8 containing these different groups R^5, which were studied are listed in the table below, wherein X1 is the UPam-14 as prepared in Example 1 and X2 is the UPam-14-Abu as prepared in Example 3. The potency of the compounds to upregulate CD40 followed the trend as observed in the DC maturation assay. […] In the up-regulation of the cell surface marker CD86 and MHC class II a corroborated trend was observed.

[1] = system: murine dendritic cell line; assay: activation of murine dendritic cell line, IL-12 ELISA; assay type: cell-based; details: 24 hours, titrating concentrations
Method: The two compounds U-Pam-12 and U-Pam-14 as obtained in Example 1 were tested in comparison to unmodified Pam3CysSK4 (SEQ ID NO: 11) for their functional capacity to activate a human TLR2 expressing reporter cell line HEK-TLR2 (FIG. 3A) and a murine dendritic cell line (FIG. 3B).
In the test live TLR2-transfected HEK cells and dendritic cells (5×10^4 cells/well) were incubated with titrating concentrations of the respective Pam compounds in culture medium and incubated at 37° C. After 24 hours, supernatants were harvested and the presence of IL-8 or IL-12 cytokines respectively, was measured by specific sandwich ELISA assays.

[2] = system: human monocyte-derived dendritic cells (moDC); assay: activation of human monocyte-derived dendritic cells (moDC): IL12p40, IL12p70 ELISA and CD86 staining (FIG. 5); assay type: cell-based; details: 48 hours of incubation, compared to Pam3CSK4 or Pam-SLP
Method: On day 5 of culturing the CD 14±fraction of donor PBMC in growth medium with IL-4 and GM-CSF, these moDC were incubated with either wt Pam3CSK4 (SEQ ID NO: 11), U-Pam14, Pam3CSK4 (SEQ ID NO: 11)-conjugated or U-Pam14-conjugated synthetic long peptide (Pam-SLP or uPam14-SLP), or left unstimulated. After 48 hours of incubation, the supernatant of the moDC cultures was taken, which was subjected to IL12p40 (FIG. 5A) and IL12p70 (FIG. 5B) ELISA analysis. After 48 hours of incubation, the moDCs were stained with antibodies directed against CD86 (FIG. 5C).

murine DC cell line = assay: DC maturation: cell surface marker expression in murine DC cell line by FACS (FIG. 4); assay type: cell-based; details: 30 nM, 48 hours, compared to Pam3CSK4
Method: The DCs were subsequently stained with antibodies directed against CD40, CD86 and MHC class II molecules. Mean fluorescence intensity was determined FACS analysis.

cellular immune response = details: mice; Vaccine 22 (2004) 2494-2499; cited from earlier work

Substance | up-regulation of CD40 compared to Pam3Cys-SK4 (DC) | stimulation (IL-12 cytokine production) compared to unmodified Pam3CysSK4 [1] | activation of human dendritic cells (IL12p40, IL12p70, CD86) [2] | expression of cell surface molecules CD40, CD86 and MHC class II (mean fluorescence intensity) (murine DC cell line) | additive for eliciting a cellular immune response (cellular immune response)
1-tetradecyl-urea-Cys((RS)-2,3-di(palmitoyloxy)-propyl)-Abu-Lys-Lys-Lys-Lys-NH2 ({1‑tetradecyl‑urea-Cys((RS)-2,3-di(palmitoyloxy)-propyl)}-[Abu]KKKK-NH2) [Upam-14-Abu] | increased amount of up-regulation | – | – | – | –
1-tetradecyl-urea-Cys((RS)-2,3-di(palmitoyloxy)-propyl)-Ser-Lys-Lys-Lys-Lys-NH2 ({1‑tetradecyl‑urea}-C(X1)SKKKK-NH2; SMILES CCCCCCCCCCCCCCCC(=O)OCC(CSC[C@H](NC(=O)NCCCCCCCCCCCCCC)C(=O)N[C@@H](CO)C(=O)N[C@@H](CCCCN)C(=O)N[C@@H](CCCCN)C(=O)N[C@@H](CCCCN)C(=O)N[C@@H](CCCCN)C(N)=O)OC(=O)CCCCCCCCCCCCCCC) [U-Pam-14] | increased amount of up-regulation | superior to wt Pam | improves activation of human dendritic cells | superior to wt Pam | –
Pam3Cys-SK4: established TLR2/TLR1 ligand, state of the art lipopeptide adjuvant (SEQ ID NO: 11) (CSKKKK; not fully specified (residue 1, N-terminus)) | – | – | – | – | most effective additive
